Test results: the METLIN SMRT retention time set (Domingo-Almenara et al. 2019)

Experiment: gradient 5% acetonitrile 3 min, to 50% in 2 min, to 85% in 15 min, held 3 min, 100 µL/min
Conditions: column: Zorbax Extend-C18 2.1 x 50 mm; eluents: water / acetonitrile, 0.1% formic acid
Procedure, shortened: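 Mixtures of ~100 pure standards were chromatographed on a Zorbax Extend-C18 column (2.1 × 50 mm, 1.8 μm) at 100 μL/min using water and acetonitrile, each with 0.1% formic acid. Detection used a quadrupole time-of-flight mass spectrometer in positive and negative ionization mode, and data collection spanned 3 months. Retention time was obtained from adduct peaks picked computationally and each checked manually.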

SMILES	RP-LC retention time [s]
COc1ccc(-c2nsc(SCC(=O)N3CCCCCC3)n2)cc1	846
Cc1ccccc1Nc1c(-c2ccc(O)cc2)nc2c(C)cccn12	651
O=C(c1ccc(N2CCN(c3ncccn3)CC2)nn1)N1CCc2ccccc21	784
Cc1ccccc1-c1ccc(N2CCN(C(=O)NC3CCCCC3)CC2)nn1	631
O=C(Nc1ccccc1Br)c1n[nH]nc1Nc1ccccc1	1100
O=C(NCCOc1ccc(F)cc1)C(c1ccccc1)n1cccc1 (centres undefined)	927
Cc1ccc2nc(-c3ccccc3F)cc(C(N)=O)c2c1	778
Cc1cccc(C(=O)N2CCc3cc(CNS(=O)(=O)Cc4ccccc4)ccc32)c1	972
CC(C)CNC(=O)COc1cccc2ccccc12	896
Cc1sc(-c2noc(C3CCC3)n2)cc1S(=O)(=O)N1CCC(C(=O)NCC2CCCO2)CC1 (centres undefined)	937
COc1ccc(-c2nc(N3CCN(c4ccccn4)CC3)c3ccccc3n2)cc1	580
O=C(NCCN1CCCCCC1)C1CCN(c2cnc(N3CCCC3)nc2)CC1	569
Cc1ccccc1Nc1c(-c2ccccn2)nc2cnccn12	941
Cc1cc(C)cc(C(=O)N2CCN(c3nc(C)cc(N4CCOCC4)n3)CC2)c1	653
O=C(c1nnn(Cc2ccc(Cl)cc2)c1-n1cccc1)N1CCCC1	915
O=C(NCCc1ccco1)c1cc2n(n1)CCCN(Cc1ccc(Cl)cc1)C2=O	857
CCCNc1cc(N2CCC(CCC(=O)NCc3cccnc3)CC2)ncn1	556
Cc1ccc(-c2nnc(Cc3nc(-c4ccc(F)cc4)no3)o2)cc1C	1120
Cn1cccc1Cc1nnc(SCC(=O)NCC2CCCO2)n1Cc1ccccc1 (centres undefined)	741
CCCn1cc(C(=O)Nc2ccc(N3CCOCC3)cc2)c2cccnc21	895
O=C(Cn1nc(C2CC2)cc1C(=O)N1CCCC1)Nc1ccc(F)cc1Cl	813
CCC(C)C(=O)N1CCCN(C2=NS(=O)(=O)C(c3ccc(F)cc3)=C2C)CC1 (centres undefined)	795
COCCn1ncc(N2CCC(C(=O)Nc3ccc(F)cc3F)C2)cc1=O (centres undefined)	666

SMILES	RP-LC retention time [s]
CCCS(=O)(=O)N1CCCC(Cc2noc(-c3cnccn3)n2)C1 (centres undefined)	764
Cn1c(=O)c2cc(C(=O)Nc3ccc4c(c3)OCO4)cnc2n(-c2ccc(F)cc2)c1=O	850
O=C(CCc1cccc2[nH]ccc12)Nc1ccc(N2CCOCC2)cc1	845
O=C1CN(C(=O)CCC[C@@H]2[C@H]3CCCN4CCC[C@@H](CN2C(=O)c2cccnc2)[C@@H]34)CCN1	629
COc1ccc(CNC(=O)c2cc3c(=O)n(C)c4ccccc4n3n2)c(OC)c1	784
CCOC(=O)N1CCN(c2c(N3CCN(c4ccccn4)CC3)c(=O)c2=O)CC1	562
CCN1C(=O)C2(CCN(S(=O)(=O)c3cc(Cl)ccc3OC)CC2)c2ccccc21	1000
O=C(NCC(F)(F)F)C1CCN(C(=O)Cc2noc3ccccc23)CC1	687
CC1CS(=O)(=O)N(c2ccc(S(=O)(=O)N3CCC(C(N)=O)CC3)cc2)C1=O (centres undefined)	640
COc1ccc(NC(=O)N2CCCC2c2nc(-c3cccc(OC)c3)no2)cc1 (centres undefined)	875
COc1ccc(S(=O)(=O)N2CCC(c3cc4n(n3)CCCN(C)C4=O)CC2)cc1	720
COc1cccc(C2CC(c3ccc(F)cc3)=NC3(CCN(C(C)C)CC3)N2)c1O (centres undefined)	608
CCN(CC)c1cc(CNC(=O)Nc2cc(OC)cc(OC)c2)ccn1	620
COc1cccc(CNS(=O)(=O)c2ccccc2-c2nc(-c3cccc(F)c3)no2)c1	1150
Cc1nc2ccn(Cc3ccco3)c(=O)c2cc1C(=O)NCCc1c[nH]c2ccccc12	768
Cc1ccc(Cn2nc3c(S(=O)(=O)N4CCN(c5ccc(F)cc5)CC4)cccn3c2=O)cc1	1020
O=C(NCCN1CCOCC1)C(=O)Nc1ccccc1Cl	549
O=c1n(Cc2ccccc2)nc2c(S(=O)(=O)N3CCCCC3)cccn12	647
Cn1nc2ccc(S(=O)(=O)N3CCSCC3)cn2c1=O	687
O=C(NCc1cccc(F)c1)c1cn2ccncc2n1	672
CCOc1ccc(-n2ccn3cc(-c4ccc(F)cc4F)nc3c2=O)cc1	916
Cc1ccc(Cl)c(NS(=O)(=O)c2cc(-c3[nH]ncc3C(=O)N(C)C)oc2C)c1	717
CC(C)NC(=O)c1ccc(OCC2CCN(C(=O)c3c(F)cccc3Cl)CC2)cc1	888

SMILES	RP-LC retention time [s]
CN(C)C[C@@H]1CN(c2ccccn2)C[C@H]1NC(=O)c1ccc2ccccc2n1	567
C=CCN(Cc1nc(-c2ccc(C)cc2)no1)C(=O)Nc1ccccc1OC	1130
Cc1ccc(-c2coc(-c3cccc(NS(=O)(=O)c4cccc5nsnc45)c3)n2)cc1	1180
COc1ccc(CNS(=O)(=O)c2cc3n(c2)CCN(C(C)C)C3=O)cc1	712
CCc1ccc(-c2ccc(-n3nc(C)c(S(=O)(=O)NC4CC4)c3C)nn2)cc1	1070
O=c1c2c(CO)c(-c3ccccc3)nn2ccn1CCc1ccccc1	926
Cc1cccc(C)c1NC(=O)N1CCC(c2cc(N)on2)CC1	660
CCOC(=O)C1=C(N)Oc2cc(C)n(CCN(C)C)c(=O)c2C1c1ccccc1 (centres undefined)	572
Cn1c(=O)n(CC(=O)N2CCOCC2)c(=O)c2cnc(-c3ccccc3)nc21	767
COC(=O)c1ccc(NC(=O)N2CCCC2c2cc(C(C)C)no2)cc1 (centres undefined)	845
COc1ccc(-c2nc3cnccn3c2Nc2ccccc2C)cc1	886
COC(=O)c1ncn2c1C(=O)N(Cc1ccc(C)cc1)C(C)(C(=O)NC1CCCC1)C2 (centres undefined)	766
CCCCOc1ccc(C(=O)N2CCN(c3nc4ccncc4n(C)c3=O)CC2)cc1	702
O=C(Cn1ccnc1-c1ccnc(N2CCOCC2)c1)Nc1cccc(Br)c1	648
CC1CCCC(NC(=O)C2CCCN(C(=O)c3cc4sccc4n3C)C2)C1C (centres undefined)	991
Cc1ccc(-n2cc3c(N4CCCC(C(=O)NCc5ccc(N(C)C)cc5)C4)ncnc3n2)cc1 (centres undefined)	600
CC(=O)c1cccc(C(=O)NC2(c3nc(C)no3)CCCCC2)c1	798
CC(C)C(=O)Oc1ccc(CO)cc1[C@H](CCN(C(C)C)C(C)C)c1ccccc1	830
COc1cc(CNC(=O)Cn2ccc3c(=O)n(C)c(=O)n(C)c32)cc(OC)c1	662
CCc1csc(-c2ccc(N3CCN(C(=O)c4ccsc4)CC3)nc2)n1	853
CC(C)(C)NC(=O)N1CCC(CNC(=O)CSc2ccc(F)cc2)CC1	715
CC(C)Cn1cc(S(=O)(=O)Nc2ccc(F)c(F)c2)c2cccnc21	994
Cc1sc(C)c(S(=O)(=O)N2CCN(c3ccccc3)CC2)c1-c1cc(C(F)(F)F)on1	1300

SMILES	RP-LC retention time [s]
O=C(Nc1ccccc1C(F)(F)F)C1CN(C(=O)c2ccc(F)c(F)c2)C1	748
Cc1cc(N2CCN(C(=O)Nc3ccc(C)c(C)c3)CC2)nc(N2CCOCC2)n1	666
CC(C)NC(=O)C1CC(=O)N(C2CCCCC2)C1 (centres undefined)	657
O=C(NCc1cccc(Cl)c1)C1CCCN(c2nccnc2Sc2ccccc2)C1 (centres undefined)	1080
CCS(=O)(=O)c1nc2ccc(NS(=O)(=O)c3cnc[nH]3)cc2s1	652
Cc1cccc(-c2noc(Cc3nc(-c4ccccc4)cs3)n2)c1	1260
Brc1ccc2nc(N3CCNCC3)sc2c1	557
Cc1nn(-c2ccc(N3CCCCC3)nn2)c(C)c1CCC(=O)NCCc1ccco1	660
COCC(C)NC(=O)c1cc2c(s1)N(CC1CC1)CCCC2 (centres undefined)	976
Cc1ccc2c(c1)c1ncn(Cc3nc(C(C)C)no3)c(=O)c1n2CC(=O)N1CCCC1	818
O=C(NCC1CCOCC1)Nc1cccc(Cl)c1	735
Cc1cc(NC(=O)c2c(O)c3cccnc3n(-c3ccc(F)cc3)c2=O)ccc1F	1250
O=C(CN1C(=O)CC(c2ccccc2)S(=O)(=O)c2ccccc21)Nc1ccc(F)cc1F (centres undefined)	906
CCOC(=O)Cc1c(C(=O)OCC)nnc2c(-c3ccccc3)c(C)nn12	1080
Cc1ccc(-c2nc3ncccn3c2Nc2cccc(Cl)c2C)cc1	915
CCc1ccccc1NC(=O)C1CCCN(c2ncnc3c2nc2n3CCCCC2)C1 (centres undefined)	802
Cc1nnc2cc(N3CCN(S(=O)(=O)c4ccc(C#N)cc4)CC3)cnn12	642
Cc1csc(-c2cc(S(=O)(=O)NCCN(C)C)cn2CC(=O)N2CCCCC2)n1	630
CCC(C)C(NC(=O)Cc1cccc(F)c1)C(=O)Nc1nc2ccccc2[nH]1 (centres undefined)	736
CCC(=O)N1CCCN(C2=NS(=O)(=O)C(c3ccc(F)cc3)=C2C)CC1	698
